We go through 1 compound from PubChem BioAssay AID504746 (National Center for Advancing Translational Sciences (NCATS), 2011).

For this series, the system named is mouse liver microsomes + NADPH, LC-MS/MS % remaining. Kind of series: Inhibitors of N370S glucocerebrosidase as a Potential Chaperone Treatment of Gaucher Disease: Metabolic Stability Profile with NADPH. As to conditions: at 5 µM; higher = more stable (active). The text has this:
Glucocerebrosidase (GC) catalyzes the hydrolysis of beta-glucocerebroside to glucose and ceramide in lysosomes. Mutations in the glucocerebrosidase gene result in Gaucher disease, an autosomal recessive lysosomal storage disorder. Many of the mutations encountered in patients with Gaucher disease are missense alterations that may cause misfolding, decreased stability and/or mistrafficking of this lysosomal protein. […] These inhibitors include iminosugar analogs and three non-iminosugar inhibitors identified from a previous HTS of 62,000 compounds with the wild type recombinant enzyme. After further testing a probe has been identified and was characterized though AMDE tests. Mouse liver microsomes are created through broken up endoplasmic reticulum from mouse liver. These liver microsomes contain many drug metabolizing enzymes, such as Cytochome P-450s and flavin-containing monooxygenases. […] NIH Chemical Genomics Center [NCGC] NIH Molecular Libraries Probe Production Centers Network [MLPCN] MLPCN Grant: MH086442-01 Assay Submitter (PI): Wei Zheng
5uM of compound is incubated with mouse liver microsome in the presence of NADPH; the reference compounds are verapamil and warfarin. Compounds are incubated and samples are analyzed with LC-MS/MS.

Turning to `S=C(NCCCc1cnc[nH]1)NCCCN(Cc1ccc(Cl)c(Cl)c1)c1ccc(Br)cn1`, the percent remaining is 58%.
